Here are results for one molecule from patent US6303626A, “Pharmaceutical formulations in dry form for the oral administration of a cyclic quaternary ammonium compound” (Sanofi-Synthelabo, priority 1997, dated 2001).

Each structure is given as a SMILES string. Where two headings read alike, the source gives them in different places. Where only a bound is given, the exact number is not on record here.

Series [1] in a line: Solubility of compound A in water at the saturation point, 24 h, room temperature, UV spectrometry. The format is physicochemical. The following applies: for solubility at 24 h: water, room temperature, read-out: Concentration of compound A (solubility in water at saturation). An excerpt: 1. Solubility of Compound A
The nature of series [2]: Solubility in different media / solvents. The format is physicochemical. The following applies: dmso, organic solvent or mixture; read-out: Solubility in dimethyl sulfoxide (DMSO).
Another series concerns Caco-2 cells. It counts as in vitro ADME. The following applies: polysorbate 80 added to a solution of compound A in the cell culture medium. An excerpt: This line is conventionally used for evaluating the ability of compounds to permeate the epithelium (Crit. Rev. Ther. Drug Carrier System. 1991, 8 (4), 105-330).
2. Evaluation of the Intestinal Transepithelial Passage of Compound A
Caco-2 cells are inoculated onto microporous polycarbonate filters covered with collagen. The cellular monolayer formed on the filter then makes it possible to separate an apical compartment (imitating the intestinal lumen) from a basal compartment (imitating the blood circulation).
The composition containing the compound to be studied is then placed on the apical side and the passage of this compound, dispersed or solubilized in Hank's medium, through this cellular barrier is evaluated by measuring the kinetics of its appearance on the basal side. This aqueous medium, of pH 6.5, has the following composition: NaCl=8.0 g/l; KCl=0.4 g/l; CaCl2 =0.19 g/l; MgCl2 =0.1 g/l; MgSO4 =0.1 g/l; Na2 HPO4 =0.09 g/l; KH2 PO4 =0.06 g/l; NaHCO3 =0.35 g/l; glucose=1 g/l; phenol red=0.01 g/l. […]
Various non-ionic surfactants or agents said to improve absorption, such as a C8 -C10 fatty acid or one of its derivatives, were added to the formulation described above, placed in Hank's medium, and the relative rate of intestinal transepithelial passage of compound A in these formulations was measured.

A short description of another series: in vivo. The following applies: rat, 0.6% aqueous solution of compound A in methyl cellulose, read-out: Estimated absorption. An excerpt: In this model, the permeability to compound A dissolved in dimethyl sulfoxide (DMSO) is 3.4.10^-7 cm/s. Furthermore, studies performed on the rat with a 0.6% aqueous solution of compound A in methyl cellulose have shown that its estimated absorption is less than 1%.

For `CC(C)Oc1cccc(CC(=O)N2CCC[C@](CC[N+]34CCC(c5ccccc5)(CC3)CC4)(c3ccc(Cl)c(Cl)c3)C2)c1` [compound A, (S)-1-{2-[3-(3,4-dichlorophenyl)-1-(3-iso-propoxyphenylacetyl)piperidin-3-yl]ethyl}-4-phenyl-1-azoniabicyclo[2.2.2]octane], the “Solubility in water, dependence on pH” value in series [1] (pH 1 to 9) is “low and not dependent on the pH”. Also, the solubility at 24 h came to 310 µg/mL in series [1] (pH 1); 310 µg/mL in series [1] (pH 3); 310 µg/mL in series [1] (pH 5); 290 µg/mL in series [1] (pH 7); 310 µg/mL in series [1] (pH 9). Besides, the solubility in series [2] is 168000 µg/mL. In addition, in the series with Caco-2 cells, the “Effect of addition of polysorbate 80 on transepithelial passage” value is recorded as “substantially improves the transepithelial passage”. Also, in “in vivo”, the Fa was below 1%.
